Data: ChEMBL document CHEMBL1201862, “PubChem BioAssay data set” (2004)
The source made the active and inactive calls.

Key:
[1] = biological target: Neurotensin receptor type 1 (Homo sapiens, UniProt P30989); format: functional;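 also: Image-based confirmatory dose-response assay measuring agonist activity at NTR1; NTR1-expressing U2OS osteosarcoma cells imaged for beta-arrestin GFP spot formation; agonist potency where compounds increase beta-arrestin recruitment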
[2] = reduction of Shn3 3'UTR-driven luciferase in osteoblasts – cell-based, Clone20 osteoblasts, firefly luciferase, cherry-picked, dose response (AID 624132); format: functional;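 also: firefly luciferase luminescence from reporter carrying the Shn3 3'UTR in osteoblasts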
[3] = test system: HEK293; test: cells; conditions: Homo sapiens;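 also: cells exposed to compound for 14 hours overnight before viability readout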
[4] = cells; format: functional
[5] = biological target: Nucleotide-binding oligomerization domain-containing protein 2 (Homo sapiens, UniProt Q9HC29); test: PubChem AID 2334; format: functional
Nucleotide-binding oligomerization domain-containing protein 2, sequence (Q9HC29 whole entry, the tested form may be a part): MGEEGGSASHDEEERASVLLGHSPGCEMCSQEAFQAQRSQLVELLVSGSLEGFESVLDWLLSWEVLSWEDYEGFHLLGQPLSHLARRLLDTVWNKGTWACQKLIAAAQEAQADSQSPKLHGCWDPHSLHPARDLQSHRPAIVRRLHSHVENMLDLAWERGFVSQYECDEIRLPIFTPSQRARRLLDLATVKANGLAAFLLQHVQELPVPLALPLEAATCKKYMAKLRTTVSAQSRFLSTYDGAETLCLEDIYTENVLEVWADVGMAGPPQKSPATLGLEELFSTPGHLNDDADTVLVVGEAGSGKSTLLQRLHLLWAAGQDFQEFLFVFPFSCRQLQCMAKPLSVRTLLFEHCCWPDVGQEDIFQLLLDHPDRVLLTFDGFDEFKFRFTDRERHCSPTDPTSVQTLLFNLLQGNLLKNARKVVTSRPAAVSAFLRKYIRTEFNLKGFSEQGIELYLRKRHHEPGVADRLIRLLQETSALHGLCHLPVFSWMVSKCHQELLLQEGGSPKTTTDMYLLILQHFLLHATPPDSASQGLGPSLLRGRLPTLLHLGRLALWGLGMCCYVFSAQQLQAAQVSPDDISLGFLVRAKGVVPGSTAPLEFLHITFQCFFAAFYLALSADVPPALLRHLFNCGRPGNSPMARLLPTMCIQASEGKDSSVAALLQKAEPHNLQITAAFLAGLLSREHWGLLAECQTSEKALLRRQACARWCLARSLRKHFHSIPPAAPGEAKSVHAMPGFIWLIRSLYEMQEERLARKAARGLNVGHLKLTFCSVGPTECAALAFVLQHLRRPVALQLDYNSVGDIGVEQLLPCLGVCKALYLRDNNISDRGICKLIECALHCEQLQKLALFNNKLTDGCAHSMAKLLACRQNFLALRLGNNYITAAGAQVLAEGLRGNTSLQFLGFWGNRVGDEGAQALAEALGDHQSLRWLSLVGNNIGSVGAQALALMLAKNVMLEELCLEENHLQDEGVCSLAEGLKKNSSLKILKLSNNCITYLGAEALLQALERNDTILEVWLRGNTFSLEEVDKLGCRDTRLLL

[6] = biological target: Tumor necrosis factor (Homo sapiens, UniProt P01375); test: analog potency on TNFa NF-kB signaling – cell-based, revised, SAR follow-up (AID 2337); format: functional
Tumor necrosis factor, sequence (P01375 whole entry): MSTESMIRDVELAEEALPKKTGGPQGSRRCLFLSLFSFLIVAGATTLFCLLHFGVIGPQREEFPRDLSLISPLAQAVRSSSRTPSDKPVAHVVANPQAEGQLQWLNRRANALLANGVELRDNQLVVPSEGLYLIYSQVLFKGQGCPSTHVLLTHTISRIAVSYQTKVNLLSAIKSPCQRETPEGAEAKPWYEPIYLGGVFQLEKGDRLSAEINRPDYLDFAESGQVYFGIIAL

[7] = THP-1 cell cytotoxicity, dose response, cytotoxicity control for non-replicating M. tuberculosis project (AID 489025); format: functional
[8] = Vero E6 cell cytotoxicity, dose response, cytotoxicity control for non-replicating M. tuberculosis project, secondary assay (AID 492998); format: functional, VeroE6; conditions: Vero C1008
[9] = biological target: T1, Nucleotide-binding oligomerization domain-containing protein 1 (Homo sapiens, UniProt Q9Y239); test: blockers of NOD1 pathway activity – revised, SAR follow-up (AID 2333); format: functional
T1 sequence (Q9Y239 whole entry): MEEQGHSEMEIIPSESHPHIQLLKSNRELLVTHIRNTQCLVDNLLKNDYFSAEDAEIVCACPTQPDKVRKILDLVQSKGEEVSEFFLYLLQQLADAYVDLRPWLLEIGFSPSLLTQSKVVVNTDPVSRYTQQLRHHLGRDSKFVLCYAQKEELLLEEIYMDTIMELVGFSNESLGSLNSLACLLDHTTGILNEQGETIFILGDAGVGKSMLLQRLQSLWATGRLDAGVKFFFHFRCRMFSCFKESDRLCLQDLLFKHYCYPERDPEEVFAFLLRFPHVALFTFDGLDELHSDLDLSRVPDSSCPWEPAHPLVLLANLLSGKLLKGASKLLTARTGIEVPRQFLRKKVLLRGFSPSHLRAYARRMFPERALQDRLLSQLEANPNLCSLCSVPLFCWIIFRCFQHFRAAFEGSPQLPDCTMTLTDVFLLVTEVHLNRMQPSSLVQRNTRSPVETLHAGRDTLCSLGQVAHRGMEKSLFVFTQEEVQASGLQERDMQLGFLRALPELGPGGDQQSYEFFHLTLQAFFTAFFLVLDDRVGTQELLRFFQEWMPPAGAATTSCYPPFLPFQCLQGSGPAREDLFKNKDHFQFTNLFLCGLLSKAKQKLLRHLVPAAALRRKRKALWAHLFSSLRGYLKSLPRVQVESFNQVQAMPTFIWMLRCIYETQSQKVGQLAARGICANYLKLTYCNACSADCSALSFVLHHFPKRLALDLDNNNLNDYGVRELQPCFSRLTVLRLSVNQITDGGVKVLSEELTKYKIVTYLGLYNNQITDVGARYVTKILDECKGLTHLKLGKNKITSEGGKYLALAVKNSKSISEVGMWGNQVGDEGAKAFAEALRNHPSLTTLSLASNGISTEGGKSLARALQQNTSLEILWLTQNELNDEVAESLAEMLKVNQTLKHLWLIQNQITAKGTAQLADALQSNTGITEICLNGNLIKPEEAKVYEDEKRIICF

[10] = HepG2 cell cytotoxicity, dose response, cytotoxicity control for non-replicating M. tuberculosis project (AID 489018); format: functional; conditions: Mycobacterium tuberculosis
[11] = biological target: T2, Zinc finger protein mex-5 (Caenorhabditis elegans, UniProt Q9XUB2); test: potency of MEX-5 RNA-binding blockers – biochemical, C. elegans, fluorescence polarization, dose response (AID 1960)
T2 sequence (Q9XUB2 whole entry): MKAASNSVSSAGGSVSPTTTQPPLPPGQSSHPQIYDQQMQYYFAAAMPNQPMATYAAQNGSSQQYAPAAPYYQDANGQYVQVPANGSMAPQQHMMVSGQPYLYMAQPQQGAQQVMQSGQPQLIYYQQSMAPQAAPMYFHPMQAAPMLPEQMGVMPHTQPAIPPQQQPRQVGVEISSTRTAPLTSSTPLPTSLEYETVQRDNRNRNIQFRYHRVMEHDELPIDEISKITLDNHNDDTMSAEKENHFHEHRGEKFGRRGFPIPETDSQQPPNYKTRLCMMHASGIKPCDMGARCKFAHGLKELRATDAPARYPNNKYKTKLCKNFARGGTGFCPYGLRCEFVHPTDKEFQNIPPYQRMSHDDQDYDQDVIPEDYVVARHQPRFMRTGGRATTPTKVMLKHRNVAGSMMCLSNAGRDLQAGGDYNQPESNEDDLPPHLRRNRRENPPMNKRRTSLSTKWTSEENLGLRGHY

[12] = biological target: T3, RNA-binding protein pos-1 (Caenorhabditis elegans, UniProt G5EF15); test: disruptors of C. elegans POS-1 RNA interaction – biochemical, fluorescence polarization, dose response (AID 1964);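 also: purified POS-1 fused to maltose binding protein made in E. coli; potency of compounds blocking POS-1 binding to fluorescent RNA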
T3 sequence (G5EF15 whole entry): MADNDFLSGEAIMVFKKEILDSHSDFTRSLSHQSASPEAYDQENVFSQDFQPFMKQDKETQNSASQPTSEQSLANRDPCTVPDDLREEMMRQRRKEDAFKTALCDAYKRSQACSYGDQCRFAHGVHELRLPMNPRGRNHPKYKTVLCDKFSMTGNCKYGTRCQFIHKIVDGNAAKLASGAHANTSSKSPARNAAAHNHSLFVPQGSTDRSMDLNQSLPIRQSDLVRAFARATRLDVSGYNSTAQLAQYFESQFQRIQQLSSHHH

[13] = biological target: Female germline-specific tumor suppressor gld-1 (Caenorhabditis elegans, UniProt Q17339); test: blockers of GLD-1/TGE RNA complex formation – biochemical, fluorescence polarization, C. elegans, dose response (AID 2802);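 also: fluorescence polarization of labeled TGE RNA bound by purified gld-1 protein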
Female germline-specific tumor suppressor gld-1, sequence (Q17339 whole entry): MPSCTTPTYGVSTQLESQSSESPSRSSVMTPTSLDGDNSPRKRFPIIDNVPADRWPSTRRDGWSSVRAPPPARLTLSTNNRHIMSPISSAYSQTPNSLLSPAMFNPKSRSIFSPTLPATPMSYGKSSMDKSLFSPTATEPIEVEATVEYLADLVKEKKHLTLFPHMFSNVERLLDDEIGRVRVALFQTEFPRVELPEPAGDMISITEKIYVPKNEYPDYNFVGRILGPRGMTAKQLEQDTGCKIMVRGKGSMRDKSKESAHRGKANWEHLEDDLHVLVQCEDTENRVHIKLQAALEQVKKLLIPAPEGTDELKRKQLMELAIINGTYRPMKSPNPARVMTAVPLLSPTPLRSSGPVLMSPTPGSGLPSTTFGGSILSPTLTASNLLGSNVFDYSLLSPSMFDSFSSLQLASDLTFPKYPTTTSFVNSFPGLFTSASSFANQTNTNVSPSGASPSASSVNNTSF

[14] = biological target: Protein Rev (Human immunodeficiency virus type 1 group M subtype B (isolate HXB2)(HIV-1), UniProt P04618); test: blockers of HIV Rev/RRE RNA complex – biochemical, fluorescence polarization, HIV-1, dose response (AID 434976); set-up: species or system Human immunodeficiency virus 1
Protein Rev (Human immunodeficiency virus type 1 group M subtype B (isolate HXB2)(HIV-1), UniProt P04618), sequence (P04618 whole entry): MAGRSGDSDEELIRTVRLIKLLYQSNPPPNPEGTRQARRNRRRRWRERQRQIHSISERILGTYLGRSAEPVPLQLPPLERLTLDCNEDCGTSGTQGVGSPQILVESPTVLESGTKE

[15] = biological target: Cytochrome P450 3A4 (Homo sapiens, UniProt P08684);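 also: CYP3A4 tested as one member of a cytochrome P450 panel screen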
Cytochrome P450 3A4, sequence (P08684 whole entry): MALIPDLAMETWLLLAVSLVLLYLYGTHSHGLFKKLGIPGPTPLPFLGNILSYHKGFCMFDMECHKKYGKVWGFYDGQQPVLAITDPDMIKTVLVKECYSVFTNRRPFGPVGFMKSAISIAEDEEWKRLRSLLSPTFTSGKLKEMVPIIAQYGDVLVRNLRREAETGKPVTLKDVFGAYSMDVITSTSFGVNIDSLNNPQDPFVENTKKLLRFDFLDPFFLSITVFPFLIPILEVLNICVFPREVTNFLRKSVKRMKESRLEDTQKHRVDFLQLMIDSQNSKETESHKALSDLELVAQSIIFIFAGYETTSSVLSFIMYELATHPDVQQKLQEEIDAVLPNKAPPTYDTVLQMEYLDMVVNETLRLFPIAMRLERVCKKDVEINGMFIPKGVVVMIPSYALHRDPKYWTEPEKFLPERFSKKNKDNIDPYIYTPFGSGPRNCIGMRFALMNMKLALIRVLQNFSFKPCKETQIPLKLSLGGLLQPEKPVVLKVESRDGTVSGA

[16] = biological target: Protein Rev (Human immunodeficiency virus type 1 group M subtype B (isolate WMJ22)(HIV-1), UniProt P05866); test: inhibitors of Rev protein–RRE RNA complex – biochemical, protein-RNA interaction, dose response (AID 842); set-up: species or system Human immunodeficiency virus 1
Protein Rev (Human immunodeficiency virus type 1 group M subtype B (isolate WMJ22)(HIV-1), UniProt P05866), sequence (P05866 whole entry): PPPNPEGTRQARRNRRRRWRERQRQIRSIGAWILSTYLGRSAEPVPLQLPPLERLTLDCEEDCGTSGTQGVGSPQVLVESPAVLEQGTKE

[17] = biological target: T4, Heat shock factor protein 1 (Mus musculus, UniProt P38532); test: decrease of HSF1-responsive luciferase luminescence – cell-based, NIH3T3, dose retest, confirmation (AID 2382); format: functional;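 also: NIH3T3 fibroblasts with HSF1-driven luciferase reporter stressed by proteasome inhibitor MG132; luminescence from HSF1-driven luciferase expression after 8 hours of MG132 stress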
T4 sequence (P38532 whole entry): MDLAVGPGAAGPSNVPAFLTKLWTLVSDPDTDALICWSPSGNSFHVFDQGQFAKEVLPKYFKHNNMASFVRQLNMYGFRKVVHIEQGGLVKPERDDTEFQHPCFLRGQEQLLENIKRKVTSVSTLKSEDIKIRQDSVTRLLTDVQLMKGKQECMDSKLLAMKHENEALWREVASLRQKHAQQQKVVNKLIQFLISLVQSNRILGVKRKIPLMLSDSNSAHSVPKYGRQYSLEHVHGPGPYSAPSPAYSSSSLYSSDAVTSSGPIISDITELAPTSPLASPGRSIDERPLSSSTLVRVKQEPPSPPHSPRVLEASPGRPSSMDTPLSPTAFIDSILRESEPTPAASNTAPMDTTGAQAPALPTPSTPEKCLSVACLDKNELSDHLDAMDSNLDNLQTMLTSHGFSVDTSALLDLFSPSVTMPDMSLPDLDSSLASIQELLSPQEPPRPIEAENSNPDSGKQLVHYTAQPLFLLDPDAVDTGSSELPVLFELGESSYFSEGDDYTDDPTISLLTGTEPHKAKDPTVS

[18] = biological target: T5, Cytochrome P450 1A2 (Homo sapiens, UniProt P05177);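 also: PubChem cytochrome P450 panel assay, CYP1A2 panel member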
T5 sequence (P05177 whole entry): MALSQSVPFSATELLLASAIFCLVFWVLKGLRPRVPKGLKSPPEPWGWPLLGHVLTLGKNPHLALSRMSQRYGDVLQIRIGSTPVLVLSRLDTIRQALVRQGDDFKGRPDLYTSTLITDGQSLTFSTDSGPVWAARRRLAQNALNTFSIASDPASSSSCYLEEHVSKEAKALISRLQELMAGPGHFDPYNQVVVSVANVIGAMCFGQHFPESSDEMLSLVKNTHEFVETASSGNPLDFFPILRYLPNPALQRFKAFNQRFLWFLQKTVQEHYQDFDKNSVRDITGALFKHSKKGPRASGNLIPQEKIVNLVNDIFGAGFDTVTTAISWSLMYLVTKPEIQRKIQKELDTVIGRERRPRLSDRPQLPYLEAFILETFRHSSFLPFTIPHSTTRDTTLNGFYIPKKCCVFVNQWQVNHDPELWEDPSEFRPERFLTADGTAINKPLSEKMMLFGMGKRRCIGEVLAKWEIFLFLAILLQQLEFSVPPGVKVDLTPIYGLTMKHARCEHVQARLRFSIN

[19] = biological target: T6, Delta-type opioid receptor (Homo sapiens, UniProt P41143); test: delta opioid receptor blockers – image-based, SAR follow-up (AID 2357); format: functional
T6 sequence (P41143 whole entry): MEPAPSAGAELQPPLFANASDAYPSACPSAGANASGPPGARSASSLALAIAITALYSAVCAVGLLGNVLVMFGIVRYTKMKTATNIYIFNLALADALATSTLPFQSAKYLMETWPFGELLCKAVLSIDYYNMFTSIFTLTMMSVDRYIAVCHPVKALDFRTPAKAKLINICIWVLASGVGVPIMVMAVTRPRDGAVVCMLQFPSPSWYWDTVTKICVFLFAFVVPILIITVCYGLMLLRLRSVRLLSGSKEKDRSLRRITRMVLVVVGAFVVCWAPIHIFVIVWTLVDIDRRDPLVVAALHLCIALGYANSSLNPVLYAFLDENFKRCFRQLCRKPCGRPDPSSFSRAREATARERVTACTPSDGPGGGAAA

[20] = biological target: T7, Kappa-type opioid receptor (Homo sapiens, UniProt P41145); test: kappa opioid receptor activation potency – imaging, image-based, SAR follow-up (AID 2359); format: functional
T7 sequence (P41145 whole entry): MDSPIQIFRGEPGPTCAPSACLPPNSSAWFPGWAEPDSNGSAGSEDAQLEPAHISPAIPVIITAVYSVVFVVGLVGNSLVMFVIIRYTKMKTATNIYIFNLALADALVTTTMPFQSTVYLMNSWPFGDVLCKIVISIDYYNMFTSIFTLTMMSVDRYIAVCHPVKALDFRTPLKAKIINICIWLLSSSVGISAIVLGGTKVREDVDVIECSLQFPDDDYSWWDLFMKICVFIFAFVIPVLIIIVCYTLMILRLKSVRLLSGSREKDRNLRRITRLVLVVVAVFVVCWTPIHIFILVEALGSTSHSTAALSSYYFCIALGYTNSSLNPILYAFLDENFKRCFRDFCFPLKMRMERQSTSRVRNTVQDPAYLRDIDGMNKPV

[21] = biological target: T7, Kappa-type opioid receptor; test: kappa opioid receptor blockers, image-based, SAR follow-up (AID 2348); format: functional
[22] = biological target: T8, Mu-type opioid receptor (Homo sapiens, UniProt P35372); test: mu opioid receptor activators, image-based, SAR follow-up (AID 2352); format: functional
T8 sequence (P35372 whole entry): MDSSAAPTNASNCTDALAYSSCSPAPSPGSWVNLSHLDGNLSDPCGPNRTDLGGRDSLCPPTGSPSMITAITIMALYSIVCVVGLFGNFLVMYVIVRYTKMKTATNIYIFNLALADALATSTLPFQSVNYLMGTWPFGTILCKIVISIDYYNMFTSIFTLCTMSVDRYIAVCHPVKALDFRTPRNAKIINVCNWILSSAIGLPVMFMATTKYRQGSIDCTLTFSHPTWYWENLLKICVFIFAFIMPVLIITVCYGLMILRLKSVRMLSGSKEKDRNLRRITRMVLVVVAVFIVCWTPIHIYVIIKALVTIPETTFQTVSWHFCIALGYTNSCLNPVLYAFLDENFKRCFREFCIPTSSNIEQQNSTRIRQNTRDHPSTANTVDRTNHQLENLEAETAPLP

[23] = biological target: T7, Kappa-type opioid receptor; test: SAR analysis of small molecule agonists of the kappa opioid receptor via a luminescent beta-arrestin assay. [Related pubchem assays (depositor defined):AID1777, AID1786, AID1966, AID2133, AID2136, AID2348, AID2352, AID2357, AID2359, AID2370, AID2420, AID2478, AID2491, AID2492, AID2493, AID2497, AID2498, AID2500, AID449737, AID488822, AID488842]; format: functional
[24] = biological target: T6, Delta-type opioid receptor; test: DOR agonists, SAR follow-up, image-based (AID 2370); format: functional
[25] = biological target: T8, Mu-type opioid receptor; test: mu opioid receptor blockers – image-based, SAR follow-up (AID 2420); format: functional;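 also: compounds added before stimulation of receptor with agonist DAMGO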
[26] = biological target: Dual specificity protein phosphatase 3 (Homo sapiens, UniProt P51452); test: inhibition constants for human DUSP3 – biochemical, colorimetric, SAR follow-up (AID 2004)
Dual specificity protein phosphatase 3, sequence (P51452 whole entry): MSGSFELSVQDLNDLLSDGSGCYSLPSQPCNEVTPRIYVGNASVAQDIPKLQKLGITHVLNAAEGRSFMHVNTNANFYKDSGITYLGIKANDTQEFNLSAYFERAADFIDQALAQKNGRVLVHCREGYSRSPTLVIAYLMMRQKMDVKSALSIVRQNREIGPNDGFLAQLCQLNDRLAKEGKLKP

Neurotensin receptor type 1, sequence (P30989 whole entry): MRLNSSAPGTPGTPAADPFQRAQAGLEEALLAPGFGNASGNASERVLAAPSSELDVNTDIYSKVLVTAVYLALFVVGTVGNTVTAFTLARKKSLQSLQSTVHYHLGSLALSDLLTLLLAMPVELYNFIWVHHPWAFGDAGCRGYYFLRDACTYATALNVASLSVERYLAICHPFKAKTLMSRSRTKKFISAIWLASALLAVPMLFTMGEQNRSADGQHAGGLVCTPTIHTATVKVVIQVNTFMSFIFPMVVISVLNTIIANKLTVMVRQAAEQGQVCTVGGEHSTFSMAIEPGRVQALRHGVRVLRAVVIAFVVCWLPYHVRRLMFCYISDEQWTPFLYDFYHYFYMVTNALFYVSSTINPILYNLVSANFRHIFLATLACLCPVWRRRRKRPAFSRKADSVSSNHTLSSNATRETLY

## CCOc1cc(/C=C2\C(=O)ON=C2C)ccc1OCc1ccccc1
[1]
  EC50: 13.9 µM (active)
[2]
  AC50: 10.4 µM (active)

## CC(=O)Nc1nc2ccccc2n1Cc1ccc(Cl)cc1
[3]
  IC50: > 20 µM (inactive)
[4]
  IC50: 1.02 µM (active)
[5]
  IC50: > 20 µM (inactive)
[6]
  IC50: > 20 µM (inactive)
[7]
  CC50: 30.9 µM (active)
[8]
  CC50: 12.9 µM (active)
[9]
  IC50: 18.8 µM (active)
[10]
  CC50: > 20 µM (active)

## O=C(CN1C(=O)C2CC=C(Cl)CC2C1=O)NCc1ccccc1 (stereo unspecified)
[11]
  EC50: 24.7 µM (active)
[12]
  EC50: 34.1 µM (active)
[13]
  IC50: 7.72 µM (active)
[14]
  IC50: 25.8 µM (not active)

## CC[n+]1c(/C=C/Nc2ccccc2)oc2ccccc21
[15]
  AC50: 25.1 µM (inconclusive)
[16]
  IC50: 5.66 µM (active)
[17]
  EC50: > 195 µM (not active)
[18]
  AC50: 15.8 µM (inconclusive)

## CCCN(Cc1cc2ccc(C)cc2[nH]c1=O)C(=O)c1ccccn1
[19]
  IC50: > 32 µM (inactive)
[20]
  EC50: > 32 µM (inactive)
[21]
  IC50: > 32 µM (inactive)
[22]
  EC50: > 32 µM (inactive)
[23]
  EC50: > 10 µM (inactive)
[24]
  EC50: > 32 µM (inactive)
[25]
  IC50: > 32 µM (inactive)

## COc1cccc(/C=C2/C(=O)NC(=O)N(c3cccc(C)c3)C2=O)c1O
[26]
  Ki: 33.1 µM (inactive)
